The record followed here is ChEMBL document CHEMBL1138371, “Discovery of low nanomolar non-hydroxamate inhibitors of tumor necrosis factor-alpha converting enzyme (TACE)” (Bioorg Med Chem Lett, 2007).

SMILES strings stand for the structures.

For assay [1], the target named is Disintegrin and metalloproteinase domain-containing protein 17 (Sus scrofa, UniProt O77636). Put plainly: Inhibition of porcine TACE.
Assay [2] addresses 72 kDa type IV collagenase (Homo sapiens, UniProt P08253). Kind of assay: Inhibition of MMP2.
The target of assay [3] is Stromelysin-1 (Homo sapiens, UniProt P08254). Put plainly: Inhibition of MMP3.
Stromelysin-1, sequence (P08254 whole entry): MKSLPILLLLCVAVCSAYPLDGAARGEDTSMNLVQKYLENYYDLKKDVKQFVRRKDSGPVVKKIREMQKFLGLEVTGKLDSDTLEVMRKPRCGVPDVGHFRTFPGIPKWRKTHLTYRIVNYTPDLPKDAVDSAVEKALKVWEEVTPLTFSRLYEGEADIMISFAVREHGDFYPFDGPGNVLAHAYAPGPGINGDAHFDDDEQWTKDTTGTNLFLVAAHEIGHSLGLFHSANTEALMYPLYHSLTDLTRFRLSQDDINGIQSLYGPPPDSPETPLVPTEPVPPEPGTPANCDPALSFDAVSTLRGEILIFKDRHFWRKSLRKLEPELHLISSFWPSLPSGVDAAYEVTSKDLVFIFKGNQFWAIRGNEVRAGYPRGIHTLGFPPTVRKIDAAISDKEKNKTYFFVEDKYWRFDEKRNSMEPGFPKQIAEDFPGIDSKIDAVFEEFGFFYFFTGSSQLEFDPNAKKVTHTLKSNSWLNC
Assay [4] has as its target T1, Matrilysin (Homo sapiens, UniProt P09237).
T1 sequence (P09237 whole entry): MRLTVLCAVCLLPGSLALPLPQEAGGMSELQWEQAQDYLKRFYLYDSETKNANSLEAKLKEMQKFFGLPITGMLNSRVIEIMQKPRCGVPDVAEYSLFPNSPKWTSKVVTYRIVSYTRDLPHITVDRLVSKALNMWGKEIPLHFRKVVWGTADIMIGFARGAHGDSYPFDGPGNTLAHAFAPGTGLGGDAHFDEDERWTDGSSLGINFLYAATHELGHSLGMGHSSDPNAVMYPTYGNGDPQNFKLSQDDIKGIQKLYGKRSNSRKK
Put plainly: Inhibition of MMP7.

For assay [5], the target named is Macrophage metalloelastase (Homo sapiens, UniProt P39900). Kind of assay: Inhibition of MMP12.
Macrophage metalloelastase, sequence (P39900 whole entry): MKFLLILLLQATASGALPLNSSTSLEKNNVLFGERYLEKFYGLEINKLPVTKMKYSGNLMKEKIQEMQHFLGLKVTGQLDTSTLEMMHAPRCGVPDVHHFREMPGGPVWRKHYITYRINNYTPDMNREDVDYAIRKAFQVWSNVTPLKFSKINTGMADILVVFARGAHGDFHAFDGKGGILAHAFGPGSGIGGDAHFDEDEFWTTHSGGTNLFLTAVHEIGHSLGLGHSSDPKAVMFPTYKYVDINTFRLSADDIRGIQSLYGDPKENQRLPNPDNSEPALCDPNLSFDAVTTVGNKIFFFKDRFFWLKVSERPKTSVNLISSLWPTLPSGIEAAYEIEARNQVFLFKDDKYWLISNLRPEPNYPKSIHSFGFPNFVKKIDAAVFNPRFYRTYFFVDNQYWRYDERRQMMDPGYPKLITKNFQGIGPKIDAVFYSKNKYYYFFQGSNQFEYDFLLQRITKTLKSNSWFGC
Assay [6] concerns the target Collagenase 3 (Homo sapiens, UniProt P45452). Kind of assay: Inhibition of MMP13.
For assay [7], the species on record is Homo sapiens. Kind of assay: Inhibition of aggrecanase at 1 uM.
Assay [8] relates to Blood. Put plainly: Inhibition of LPS-stimulated TNFalpha production in human whole blood. The format is functional, tissue-based.
Assay [9] has as its target T2, Interstitial collagenase (Homo sapiens, UniProt P03956).
T2 sequence (P03956 whole entry): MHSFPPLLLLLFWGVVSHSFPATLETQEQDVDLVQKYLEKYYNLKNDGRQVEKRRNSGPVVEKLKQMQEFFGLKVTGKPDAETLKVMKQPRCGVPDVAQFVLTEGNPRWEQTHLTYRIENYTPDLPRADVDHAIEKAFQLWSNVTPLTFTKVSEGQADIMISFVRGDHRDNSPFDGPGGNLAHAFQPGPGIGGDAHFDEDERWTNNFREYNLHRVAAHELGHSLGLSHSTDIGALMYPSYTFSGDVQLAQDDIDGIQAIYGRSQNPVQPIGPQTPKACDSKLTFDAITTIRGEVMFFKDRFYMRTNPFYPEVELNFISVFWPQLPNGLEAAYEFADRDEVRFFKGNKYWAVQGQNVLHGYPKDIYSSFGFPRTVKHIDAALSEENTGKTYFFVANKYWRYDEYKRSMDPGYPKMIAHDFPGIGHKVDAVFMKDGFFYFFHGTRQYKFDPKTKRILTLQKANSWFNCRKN
Put plainly: Inhibition of MMP1.

The target in assay [10] is Matrix metalloproteinase-9 (Homo sapiens, UniProt P14780). Kind of assay: Inhibition of MMP9.
Matrix metalloproteinase-9, sequence (P14780 whole entry): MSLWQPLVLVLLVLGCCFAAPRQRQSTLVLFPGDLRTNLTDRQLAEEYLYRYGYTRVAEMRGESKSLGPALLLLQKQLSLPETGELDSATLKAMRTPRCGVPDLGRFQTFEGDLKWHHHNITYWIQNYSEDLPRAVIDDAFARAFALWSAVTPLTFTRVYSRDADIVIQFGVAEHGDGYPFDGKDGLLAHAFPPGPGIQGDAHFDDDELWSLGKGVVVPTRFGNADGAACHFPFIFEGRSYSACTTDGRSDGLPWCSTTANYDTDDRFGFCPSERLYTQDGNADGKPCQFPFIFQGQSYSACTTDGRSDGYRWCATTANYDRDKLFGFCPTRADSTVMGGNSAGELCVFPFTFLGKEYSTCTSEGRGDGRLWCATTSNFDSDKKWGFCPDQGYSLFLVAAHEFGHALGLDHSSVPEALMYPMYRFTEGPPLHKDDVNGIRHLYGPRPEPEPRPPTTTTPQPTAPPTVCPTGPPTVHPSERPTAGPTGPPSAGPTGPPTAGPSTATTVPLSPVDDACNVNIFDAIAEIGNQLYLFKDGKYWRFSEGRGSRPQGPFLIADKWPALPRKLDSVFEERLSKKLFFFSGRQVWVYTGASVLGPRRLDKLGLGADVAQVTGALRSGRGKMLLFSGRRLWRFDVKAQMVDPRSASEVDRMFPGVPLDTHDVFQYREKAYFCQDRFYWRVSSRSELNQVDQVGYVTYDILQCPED

72 kDa type IV collagenase, sequence (P08253 whole entry): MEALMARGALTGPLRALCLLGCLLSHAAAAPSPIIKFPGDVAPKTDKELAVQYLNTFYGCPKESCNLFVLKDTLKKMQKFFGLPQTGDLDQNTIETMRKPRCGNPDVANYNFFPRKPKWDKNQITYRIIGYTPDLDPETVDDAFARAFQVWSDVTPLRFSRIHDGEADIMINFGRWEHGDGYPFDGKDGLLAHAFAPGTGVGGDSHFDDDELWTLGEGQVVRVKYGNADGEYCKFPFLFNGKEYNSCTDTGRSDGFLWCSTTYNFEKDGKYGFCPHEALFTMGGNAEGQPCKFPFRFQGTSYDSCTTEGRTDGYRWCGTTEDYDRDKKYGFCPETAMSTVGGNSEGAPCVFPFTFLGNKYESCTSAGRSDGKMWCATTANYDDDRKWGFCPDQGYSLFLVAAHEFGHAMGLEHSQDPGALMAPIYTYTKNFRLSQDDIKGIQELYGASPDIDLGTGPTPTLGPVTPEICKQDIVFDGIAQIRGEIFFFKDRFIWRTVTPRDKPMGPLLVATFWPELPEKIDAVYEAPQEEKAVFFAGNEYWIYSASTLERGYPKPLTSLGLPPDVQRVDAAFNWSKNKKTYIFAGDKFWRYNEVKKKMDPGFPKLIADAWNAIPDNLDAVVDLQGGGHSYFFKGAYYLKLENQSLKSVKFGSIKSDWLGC
Disintegrin and metalloproteinase domain-containing protein 17, sequence (O77636 whole entry, the tested form may be a part): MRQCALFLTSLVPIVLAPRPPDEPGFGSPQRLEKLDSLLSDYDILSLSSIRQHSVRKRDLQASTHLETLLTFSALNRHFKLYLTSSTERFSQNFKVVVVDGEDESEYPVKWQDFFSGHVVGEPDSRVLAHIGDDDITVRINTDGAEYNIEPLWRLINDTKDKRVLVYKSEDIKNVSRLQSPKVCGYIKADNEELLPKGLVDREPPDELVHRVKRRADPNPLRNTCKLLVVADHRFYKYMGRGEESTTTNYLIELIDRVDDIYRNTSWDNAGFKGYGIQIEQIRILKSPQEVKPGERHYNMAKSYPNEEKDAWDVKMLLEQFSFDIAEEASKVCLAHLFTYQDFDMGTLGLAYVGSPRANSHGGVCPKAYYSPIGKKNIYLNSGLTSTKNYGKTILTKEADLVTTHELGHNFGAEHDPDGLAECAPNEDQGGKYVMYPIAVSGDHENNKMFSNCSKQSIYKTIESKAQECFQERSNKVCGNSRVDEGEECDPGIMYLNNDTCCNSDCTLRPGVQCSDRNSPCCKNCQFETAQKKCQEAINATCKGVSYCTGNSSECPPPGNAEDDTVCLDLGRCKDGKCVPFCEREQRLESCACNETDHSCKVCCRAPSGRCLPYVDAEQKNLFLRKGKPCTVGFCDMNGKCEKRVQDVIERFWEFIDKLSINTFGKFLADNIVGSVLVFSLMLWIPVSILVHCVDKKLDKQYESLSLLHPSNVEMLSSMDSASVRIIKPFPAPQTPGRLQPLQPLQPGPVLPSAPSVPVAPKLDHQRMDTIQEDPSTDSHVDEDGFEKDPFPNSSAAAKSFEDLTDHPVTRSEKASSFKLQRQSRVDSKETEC

In the case of `Cc1cc(COc2ccc(C(=O)NC3CN(S(C)(=O)=O)CC34C(=O)NC(=O)NC4=O)cc2)c2ccccc2n1` (centres undefined), the figures for the IC50 in assay [1] and in assay [8] were 0.036 µM and 12.6 µM, respectively. The Ki in assay [2] was over 3.33 µM; in assay [3], over 4.5 µM; in assay [4], over 6.37 µM; in [5], 1.29 µM; in assay [6], 3.72 µM. In addition, in assay [7], the inhibition worked out at 26%.

For `Cc1cc(COc2ccc(C(=O)NC3COCC34C(=O)NC(=O)NC4=O)cc2)c2ccccc2n1` (centres undefined), the half-maximal inhibitory concentration (IC50) turned out to be 0.044 µM in assay [1] and 50 µM in assay [8]. Besides, the Ki is over 3.33 µM in assay [2]; over 4.5 µM in assay [3]; over 6.37 µM in assay [4]; over 4.04 µM in [5]; 3.53 µM in [6]. In [7], this compound returned an inhibition of 12%.

In turn, `Cc1cc(COc2ccc(C(=O)NCC3(C)C(=O)NC(=O)NC3=O)cc2)c2ccccc2n1` returned an IC50 in assay [1] of 0.026 µM. The inhibitory constant (Ki) in [9] was over 4.95 µM; in [2] it was over 3.33 µM; in assay [3], over 4.5 µM; in assay [4], over 6.37 µM; in assay [10], over 2.13 µM; in [5] it was over 6.02 µM. The inhibitory constant (Ki) in assay [6] was over 5.02 µM. Moreover, the inhibition in [7] worked out at 0%.

Regarding `Cc1cc(COc2ccc(C(=O)NC3CN(C(=O)c4cccnc4)CC34C(=O)NC(=O)NC4=O)cc2)c2ccccc2n1` (centres undefined), the 50% inhibitory concentration (IC50) in assay [1] stood at 0.029 µM; in assay [8], 18.4 µM. Further, the Ki in assay [2] was over 3.33 µM; in [3], over 4.5 µM; in assay [4], over 6.37 µM; in assay [5], 0.13 µM; in [6], 1.31 µM. Besides, in assay [7], the inhibition is 17%.

For the compound `CC(=O)N1CC(NC(=O)c2ccc(OCc3cc(C)nc4ccccc34)cc2)C2(C1)C(=O)NC(=O)NC2=O` (centres undefined), the IC50 in assay [1] amounted to 0.055 µM; in [8], 14 µM. Besides, the Ki in assay [2] is over 3.33 µM; in assay [3], over 4.5 µM; in assay [4] it was over 6.37 µM; in [5], 0.58 µM; in assay [6], 3.95 µM. In assay [7], this compound came in with an inhibition of 44%.

`Cc1cc(COc2ccc(C(=O)NC3CN(C(=O)OC(C)(C)C)CC34C(=O)NC(=O)NC4=O)cc2)c2ccccc2n1` (centres undefined): the figures for the 50% inhibitory concentration (IC50) in assay [1] and in assay [8] were 0.128 µM and 14 µM, respectively. The inhibition constant (Ki) in [2] was over 3.33 µM; in assay [3], over 4.5 µM; in assay [4] it was over 6.37 µM; in [5] it was 1.03 µM; in assay [6] it was over 5.21 µM. Moreover, the inhibition in assay [7] was found to be 44%.
